{"source": "BindingDB's records for doi:10.1016/s0960-894x(01)00776-4", "about": "(Wyeth-Ayerst Research, 2002)", "assay": "Inhibition of Src-transformed fibroblast cell proliferation", "data": [{"smiles": "COc1cc(Nc2c(C#N)cnc3cc(OC)c(OC)cc23)c(C)cc1Cl", "values": [{"measurement": "IC50", "value": 2400, "unit": "nM"}]}]}
